The values below come from PubChem BioAssay (NCI).

Molecules are shown by their SMILES.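 Cells were grown in 96-well plates and exposed to each compound for 48 hours at five concentrations; endpoints were interpolated linearly between bracketing concentrations, or set to the highest concentration if not reached. TGI marks complete inhibition of growth.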

Test systems include DLD-1 colon; M19-MEL melanoma; SNB-78 CNS; XF 498 CNS; HOP-18 NSCLC; LXFL 529 NSCLC; P388 leukemia; P388/ADR leukemia; SN12K1 renal.
Holding throughout (assay): NCI tumour cell line growth inhibition, 48 h

On to `C[n+]1c2ccccc2c(/C=N\NS(=O)(=O)c2ccc(Cl)cc2)c2ccccc21`, for which the TGI in the test with DLD-1 colon, in the test with M19-MEL melanoma, in the test with SNB-78 CNS and with XF 498 CNS was above 100 µM each time.
As to `O=[N+]([O-])c1ccc([N+]2=NC(c3ccccc3)=NN(c3ccccc3)C2)cc1`, the TGI is above 100 µM in the test on DLD-1 colon; above 100 µM in the test on HOP-18 NSCLC; above 100 µM in the test on LXFL 529 NSCLC; above 100 µM in the test on M19-MEL melanoma; above 100 µM in the test on SNB-78 CNS; 58.9 µM in the test with XF 498 CNS.
On to `CN(C)c1ccc(/C=C/C(=O)O)cc1`, for which the TGI in the test with DLD-1 colon, in the test with HOP-18 NSCLC, with LXFL 529 NSCLC, with M19-MEL melanoma, in the test with SNB-78 CNS and with XF 498 CNS was above 100 µM each time.
On to `CCN(CC)CCOc1ccc(C(O)(Cc2ccc(OC)cc2)c2ccccc2)cc1` (centres undefined), for which the TGI in the test on DLD-1 colon was 72.3 µM; in the test with LXFL 529 NSCLC, 37.2 µM; with M19-MEL melanoma it was 29.5 µM; with SNB-78 CNS it was 44.7 µM; with XF 498 CNS it was 27.5 µM.
For `O=C(CSc1nnc(-c2ccc(N=Cc3ccc(Cl)cc3)cc2)o1)Nc1ccc([N+](=O)[O-])cc1`, the TGI was above 100 µM in the test on HOP-18 NSCLC; 35.9 µM with LXFL 529 NSCLC; 36.9 µM with M19-MEL melanoma; 84.4 µM in the test on SNB-78 CNS; 47.1 µM with XF 498 CNS.
For `COc1cccc(-c2nccc3c(OCc4ccccc4)c(OC)c(OC)cc23)c1`, the TGI with DLD-1 colon, in the test on LXFL 529 NSCLC, in the test with M19-MEL melanoma, in the test on SNB-78 CNS and in the test with XF 498 CNS was above 100 µM each time.
For `Cn1ccnc1CCc1ccc(Cl)c(Cl)c1`, the TGI in the test on DLD-1 colon, in the test with HOP-18 NSCLC, with LXFL 529 NSCLC, in the test with M19-MEL melanoma and in the test on SNB-78 CNS was above 100 µM throughout.
`CCN(CC)CCOC(=O)Cc1cccc2c(=O)cc(-c3ccccc3)oc12`: the TGI with DLD-1 colon was above 195 µM; with HOP-18 NSCLC, above 126 µM; in the test on M19-MEL melanoma, above 223 µM; with P388 leukemia, above 625 µM; in the test with P388/ADR leukemia it was above 625 µM; in the test with SN12K1 renal, 127 µM. Moreover, the TGI in the test with SNB-78 CNS is above 175 µM; with XF 498 CNS it was 82.6 µM.
